Experimental data from paper PMC11167047 (Cell Death Discovery, 2024).

Columns and labels:
Experiment in all cases: kinome screen (33PanQinase)
Type in all cases: biochemical
[1] = biological target: T1, ACVRL1 (Homo sapiens, UniProt P37023)
T1 construct: purchased Reaction Biology Europe GmbH (formerly ProQinase)
Description: (§1) The Kinome Screening was performed by Reaction Biology Europe GmbH (http://reactionbiology.com; Freiburg i. Br., Germany).

[2] = biological target: T2, BRSK1 (Homo sapiens, UniProt Q8TDC3)
T2 construct: purchased Reaction Biology Europe GmbH (formerly ProQinase)
T2 sequence (Q8TDC3 1-778): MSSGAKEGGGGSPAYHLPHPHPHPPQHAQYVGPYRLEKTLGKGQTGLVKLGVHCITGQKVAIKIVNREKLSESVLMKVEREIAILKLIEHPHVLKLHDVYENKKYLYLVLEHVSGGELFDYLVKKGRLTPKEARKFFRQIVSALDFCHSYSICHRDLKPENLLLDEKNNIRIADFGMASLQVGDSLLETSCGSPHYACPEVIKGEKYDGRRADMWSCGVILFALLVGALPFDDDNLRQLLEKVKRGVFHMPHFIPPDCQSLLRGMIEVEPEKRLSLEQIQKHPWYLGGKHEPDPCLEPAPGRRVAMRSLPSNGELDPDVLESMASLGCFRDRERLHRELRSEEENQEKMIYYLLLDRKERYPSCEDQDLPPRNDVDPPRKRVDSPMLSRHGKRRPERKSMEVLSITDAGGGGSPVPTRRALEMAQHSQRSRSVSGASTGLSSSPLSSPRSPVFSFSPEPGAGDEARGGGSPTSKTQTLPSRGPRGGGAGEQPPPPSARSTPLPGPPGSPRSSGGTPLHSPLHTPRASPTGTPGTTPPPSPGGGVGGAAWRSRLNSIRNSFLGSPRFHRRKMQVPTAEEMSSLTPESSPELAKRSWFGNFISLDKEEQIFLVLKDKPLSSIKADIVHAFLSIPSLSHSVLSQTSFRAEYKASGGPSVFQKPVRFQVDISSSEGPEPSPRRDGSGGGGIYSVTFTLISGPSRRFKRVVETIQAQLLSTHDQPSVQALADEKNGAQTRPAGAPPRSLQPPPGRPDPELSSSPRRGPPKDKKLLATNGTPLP
Description: as §1

[3] = biological target: T3, BUB1B (Homo sapiens, UniProt O60566)
T3 construct: purchased Reaction Biology Europe GmbH (formerly ProQinase)
T3 sequence (O60566 whole entry): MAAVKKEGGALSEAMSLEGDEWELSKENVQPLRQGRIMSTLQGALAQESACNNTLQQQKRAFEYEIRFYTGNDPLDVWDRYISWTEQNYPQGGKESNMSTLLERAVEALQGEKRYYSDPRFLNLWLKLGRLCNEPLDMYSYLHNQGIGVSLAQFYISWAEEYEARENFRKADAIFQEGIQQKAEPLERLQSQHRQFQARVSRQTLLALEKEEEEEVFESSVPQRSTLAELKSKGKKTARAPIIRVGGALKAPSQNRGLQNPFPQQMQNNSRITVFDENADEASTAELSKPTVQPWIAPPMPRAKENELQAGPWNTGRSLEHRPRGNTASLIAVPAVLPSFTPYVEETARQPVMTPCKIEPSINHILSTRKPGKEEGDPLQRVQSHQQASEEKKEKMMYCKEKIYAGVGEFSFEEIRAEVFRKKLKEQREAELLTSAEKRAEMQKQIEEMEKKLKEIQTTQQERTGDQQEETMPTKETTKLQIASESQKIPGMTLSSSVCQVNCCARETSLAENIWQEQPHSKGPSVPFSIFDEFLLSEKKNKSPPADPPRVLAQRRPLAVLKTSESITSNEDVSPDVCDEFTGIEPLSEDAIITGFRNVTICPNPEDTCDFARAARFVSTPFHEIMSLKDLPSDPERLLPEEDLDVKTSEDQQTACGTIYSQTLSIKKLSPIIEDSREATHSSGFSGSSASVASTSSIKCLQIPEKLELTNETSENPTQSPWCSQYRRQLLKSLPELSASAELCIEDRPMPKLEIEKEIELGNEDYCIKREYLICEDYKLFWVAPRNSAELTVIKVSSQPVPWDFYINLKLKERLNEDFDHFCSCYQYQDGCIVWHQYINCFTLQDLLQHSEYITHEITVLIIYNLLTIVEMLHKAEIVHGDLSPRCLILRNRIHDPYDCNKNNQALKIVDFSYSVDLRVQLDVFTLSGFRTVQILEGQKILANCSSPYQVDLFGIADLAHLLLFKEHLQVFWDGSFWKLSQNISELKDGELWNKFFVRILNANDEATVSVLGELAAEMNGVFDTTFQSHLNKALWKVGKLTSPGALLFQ
Description: as §1

[4] = biological target: T4, CDK1/CycE1 (Homo sapiens, UniProt P06493)
T4 construct: purchased Reaction Biology Europe GmbH (formerly ProQinase)
Description: as §1

[5] = biological target: T5, DAPK1 (Homo sapiens, UniProt P53355)
T5 construct: purchased Reaction Biology Europe GmbH (formerly ProQinase)
T5 sequence (P53355 whole entry): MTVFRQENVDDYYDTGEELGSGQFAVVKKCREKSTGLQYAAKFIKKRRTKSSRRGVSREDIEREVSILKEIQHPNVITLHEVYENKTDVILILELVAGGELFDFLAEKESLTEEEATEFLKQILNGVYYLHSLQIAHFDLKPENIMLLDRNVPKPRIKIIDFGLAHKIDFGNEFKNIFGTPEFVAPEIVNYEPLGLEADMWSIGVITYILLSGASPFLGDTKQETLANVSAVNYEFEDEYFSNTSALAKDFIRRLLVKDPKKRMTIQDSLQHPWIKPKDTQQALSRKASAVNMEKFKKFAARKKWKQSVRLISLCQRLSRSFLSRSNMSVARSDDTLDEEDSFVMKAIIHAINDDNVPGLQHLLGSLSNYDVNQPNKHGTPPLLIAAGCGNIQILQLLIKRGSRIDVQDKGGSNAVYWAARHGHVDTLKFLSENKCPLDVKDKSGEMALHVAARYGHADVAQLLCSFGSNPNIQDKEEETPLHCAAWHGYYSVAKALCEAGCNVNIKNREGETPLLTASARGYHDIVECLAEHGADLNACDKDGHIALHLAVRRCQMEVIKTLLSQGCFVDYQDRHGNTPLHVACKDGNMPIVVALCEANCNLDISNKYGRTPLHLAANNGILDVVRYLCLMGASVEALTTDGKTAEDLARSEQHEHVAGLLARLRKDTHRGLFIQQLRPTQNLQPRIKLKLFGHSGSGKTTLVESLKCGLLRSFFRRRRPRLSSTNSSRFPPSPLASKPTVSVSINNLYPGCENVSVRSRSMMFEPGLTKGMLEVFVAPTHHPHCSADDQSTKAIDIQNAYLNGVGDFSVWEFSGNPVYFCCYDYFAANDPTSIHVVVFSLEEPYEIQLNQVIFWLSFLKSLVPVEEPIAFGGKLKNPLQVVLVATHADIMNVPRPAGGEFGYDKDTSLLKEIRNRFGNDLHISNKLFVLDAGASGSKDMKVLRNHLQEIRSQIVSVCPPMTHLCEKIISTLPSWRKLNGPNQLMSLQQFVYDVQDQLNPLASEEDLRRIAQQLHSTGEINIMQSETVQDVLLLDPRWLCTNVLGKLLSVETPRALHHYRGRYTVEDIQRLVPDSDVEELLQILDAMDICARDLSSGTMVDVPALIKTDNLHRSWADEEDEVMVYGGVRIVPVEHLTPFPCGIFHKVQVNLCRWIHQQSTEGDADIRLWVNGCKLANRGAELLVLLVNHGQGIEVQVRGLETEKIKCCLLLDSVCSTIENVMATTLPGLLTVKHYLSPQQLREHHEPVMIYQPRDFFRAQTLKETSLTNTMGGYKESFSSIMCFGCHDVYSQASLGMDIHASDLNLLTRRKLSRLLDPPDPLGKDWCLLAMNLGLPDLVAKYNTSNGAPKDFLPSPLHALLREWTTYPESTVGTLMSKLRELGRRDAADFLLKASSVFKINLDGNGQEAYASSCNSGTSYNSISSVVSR
Description: as §1

[6] = biological target: T6, JNK1 (Homo sapiens, UniProt P45983)
T6 construct: purchased Reaction Biology Europe GmbH (formerly ProQinase)
T6 sequence (P45983 whole entry): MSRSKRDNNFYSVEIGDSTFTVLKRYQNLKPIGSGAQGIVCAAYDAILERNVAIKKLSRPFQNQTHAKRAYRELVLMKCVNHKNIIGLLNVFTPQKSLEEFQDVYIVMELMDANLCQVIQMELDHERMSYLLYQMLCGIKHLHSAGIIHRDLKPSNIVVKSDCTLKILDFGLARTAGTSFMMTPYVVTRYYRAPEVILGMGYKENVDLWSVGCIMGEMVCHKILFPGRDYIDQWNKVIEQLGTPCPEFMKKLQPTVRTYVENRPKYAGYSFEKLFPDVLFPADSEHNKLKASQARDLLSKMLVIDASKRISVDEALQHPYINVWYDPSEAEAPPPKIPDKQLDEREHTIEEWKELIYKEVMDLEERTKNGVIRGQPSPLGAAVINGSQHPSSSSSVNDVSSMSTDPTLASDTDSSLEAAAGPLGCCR
Description: as §1

[7] = biological target: T7, LIMK1 (Homo sapiens, UniProt P53667)
T7 construct: purchased Reaction Biology Europe GmbH (formerly ProQinase)
T7 sequence (P53667 whole entry): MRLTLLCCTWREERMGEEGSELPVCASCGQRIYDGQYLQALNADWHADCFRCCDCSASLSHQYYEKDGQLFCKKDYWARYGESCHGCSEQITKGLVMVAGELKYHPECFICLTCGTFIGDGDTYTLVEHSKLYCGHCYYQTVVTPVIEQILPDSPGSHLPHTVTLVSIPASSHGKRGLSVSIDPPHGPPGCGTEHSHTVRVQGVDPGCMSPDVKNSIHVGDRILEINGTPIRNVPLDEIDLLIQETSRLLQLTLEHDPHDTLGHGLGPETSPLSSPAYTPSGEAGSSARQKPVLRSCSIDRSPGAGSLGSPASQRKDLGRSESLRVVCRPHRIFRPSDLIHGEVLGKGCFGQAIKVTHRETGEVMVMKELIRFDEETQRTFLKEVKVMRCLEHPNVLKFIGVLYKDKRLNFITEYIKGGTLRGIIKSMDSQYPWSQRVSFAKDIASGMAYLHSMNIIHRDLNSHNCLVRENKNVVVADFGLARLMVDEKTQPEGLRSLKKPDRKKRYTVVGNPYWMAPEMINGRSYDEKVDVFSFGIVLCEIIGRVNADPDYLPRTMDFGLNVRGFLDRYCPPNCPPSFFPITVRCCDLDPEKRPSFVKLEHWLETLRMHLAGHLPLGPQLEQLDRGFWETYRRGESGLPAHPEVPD
Description: as §1

[8] = biological target: T8, MST1 (Homo sapiens, UniProt Q13043)
T8 construct: purchased Reaction Biology Europe GmbH (formerly ProQinase)
T8 sequence (Q13043 1-487): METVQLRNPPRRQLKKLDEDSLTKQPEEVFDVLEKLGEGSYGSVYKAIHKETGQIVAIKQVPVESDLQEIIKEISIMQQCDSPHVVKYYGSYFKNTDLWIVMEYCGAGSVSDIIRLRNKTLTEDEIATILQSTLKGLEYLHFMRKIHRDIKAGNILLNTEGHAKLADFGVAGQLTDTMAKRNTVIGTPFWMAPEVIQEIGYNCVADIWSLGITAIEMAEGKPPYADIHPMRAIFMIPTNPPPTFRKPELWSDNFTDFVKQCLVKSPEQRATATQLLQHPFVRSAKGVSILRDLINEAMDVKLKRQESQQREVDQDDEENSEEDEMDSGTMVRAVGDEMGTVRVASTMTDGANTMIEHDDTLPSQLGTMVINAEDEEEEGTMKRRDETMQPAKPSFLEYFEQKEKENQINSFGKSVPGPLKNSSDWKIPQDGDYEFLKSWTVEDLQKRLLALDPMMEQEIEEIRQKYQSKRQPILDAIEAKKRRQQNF
Description: as §1

[9] = biological target: T9, MST2 (Homo sapiens, UniProt Q13188)
T9 construct: purchased Reaction Biology Europe GmbH (formerly ProQinase)
T9 sequence (Q13188 1-491): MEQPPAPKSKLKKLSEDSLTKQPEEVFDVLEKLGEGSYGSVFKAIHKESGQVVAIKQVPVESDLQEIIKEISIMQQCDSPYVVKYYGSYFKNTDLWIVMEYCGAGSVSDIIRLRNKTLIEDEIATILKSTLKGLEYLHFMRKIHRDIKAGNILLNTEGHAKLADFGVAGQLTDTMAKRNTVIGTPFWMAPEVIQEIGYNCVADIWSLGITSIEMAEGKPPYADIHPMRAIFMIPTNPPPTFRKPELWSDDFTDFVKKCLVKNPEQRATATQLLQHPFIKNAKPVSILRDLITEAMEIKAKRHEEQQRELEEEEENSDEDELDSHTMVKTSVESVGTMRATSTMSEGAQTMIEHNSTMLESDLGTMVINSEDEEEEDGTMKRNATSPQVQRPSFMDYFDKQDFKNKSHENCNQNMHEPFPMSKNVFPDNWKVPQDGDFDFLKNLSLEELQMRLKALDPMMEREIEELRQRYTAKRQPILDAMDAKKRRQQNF
Description: as §1

[10] = biological target: T10, MYLK2 (Homo sapiens, UniProt Q9H1R3)
T10 construct: purchased Reaction Biology Europe GmbH (formerly ProQinase)
T10 sequence (Q9H1R3 whole entry): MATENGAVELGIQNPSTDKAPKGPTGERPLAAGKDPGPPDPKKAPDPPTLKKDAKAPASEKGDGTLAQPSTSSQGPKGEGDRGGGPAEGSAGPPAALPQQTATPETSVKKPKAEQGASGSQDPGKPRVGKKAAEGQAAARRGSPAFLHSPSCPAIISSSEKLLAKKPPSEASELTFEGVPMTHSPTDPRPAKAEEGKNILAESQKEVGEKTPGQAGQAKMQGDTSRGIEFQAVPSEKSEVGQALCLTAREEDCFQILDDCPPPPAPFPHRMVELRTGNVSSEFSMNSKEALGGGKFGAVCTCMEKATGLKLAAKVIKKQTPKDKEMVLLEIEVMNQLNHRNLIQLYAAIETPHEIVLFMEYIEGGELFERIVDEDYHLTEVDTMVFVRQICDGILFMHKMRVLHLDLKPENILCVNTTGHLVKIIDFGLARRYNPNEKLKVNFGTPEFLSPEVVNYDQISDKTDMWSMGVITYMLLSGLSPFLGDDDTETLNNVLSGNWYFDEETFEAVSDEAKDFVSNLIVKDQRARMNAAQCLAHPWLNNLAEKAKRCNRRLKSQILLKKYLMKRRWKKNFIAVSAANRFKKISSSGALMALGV
Description: as §1

[11] = biological target: T11, PHKG1 (Homo sapiens, UniProt Q16816)
T11 construct: purchased Reaction Biology Europe GmbH (formerly ProQinase)
T11 sequence (Q16816 whole entry): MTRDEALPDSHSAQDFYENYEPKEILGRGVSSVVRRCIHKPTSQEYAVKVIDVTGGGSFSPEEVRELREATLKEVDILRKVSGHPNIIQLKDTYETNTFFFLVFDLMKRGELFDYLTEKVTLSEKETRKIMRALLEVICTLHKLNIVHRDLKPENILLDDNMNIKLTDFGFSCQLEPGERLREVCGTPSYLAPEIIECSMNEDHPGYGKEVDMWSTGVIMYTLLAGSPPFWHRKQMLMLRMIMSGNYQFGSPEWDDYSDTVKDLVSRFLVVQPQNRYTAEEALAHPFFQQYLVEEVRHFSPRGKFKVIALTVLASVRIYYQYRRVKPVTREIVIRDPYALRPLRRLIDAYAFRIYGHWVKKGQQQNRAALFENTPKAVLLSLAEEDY
Description: as §1

T1 sequence (P37023 22-503): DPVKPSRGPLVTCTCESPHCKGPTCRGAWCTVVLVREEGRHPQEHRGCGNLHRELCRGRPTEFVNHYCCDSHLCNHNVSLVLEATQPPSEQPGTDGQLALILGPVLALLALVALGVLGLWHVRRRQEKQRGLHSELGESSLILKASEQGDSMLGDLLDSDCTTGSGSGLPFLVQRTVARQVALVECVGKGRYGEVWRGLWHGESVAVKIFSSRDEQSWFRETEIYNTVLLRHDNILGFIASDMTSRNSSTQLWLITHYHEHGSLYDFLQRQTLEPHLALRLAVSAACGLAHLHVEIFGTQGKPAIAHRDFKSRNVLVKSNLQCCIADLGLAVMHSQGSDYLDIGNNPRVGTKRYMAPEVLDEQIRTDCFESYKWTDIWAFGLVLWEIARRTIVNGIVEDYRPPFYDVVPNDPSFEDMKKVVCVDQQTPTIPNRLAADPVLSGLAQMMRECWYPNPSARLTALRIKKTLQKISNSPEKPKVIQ

Compound | residual kinase activity ([1]; 0.3 µM) | residual kinase activity ([2]; 0.3 µM) | residual kinase activity ([3]; 0.3 µM) | residual kinase activity ([4]; 0.3 µM) | residual kinase activity ([5]; 0.3 µM) | residual kinase activity ([6]; 0.3 µM) | residual kinase activity ([7]; 0.3 µM) | residual kinase activity ([8]; 0.3 µM) | residual kinase activity ([9]; 0.3 µM) | residual kinase activity ([10]; 0.3 µM) | residual kinase activity ([11]; 0.3 µM) | other results
COc1ccnc2[nH]cc(-c3cc(N)nc(N)c3)c12 [meriolin 16] | 89 % of control | 97 % of control | 81 % of control | 8 % of control | 72 % of control | 95 % of control | 3 % of control | 49 % of control | 77 % of control | 32 % of control | 39 % of control | residual kinase activity ([1]; 0.03 µM): 101 % of control; residual kinase activity ([2]; 0.03 µM): 91 % of control; residual kinase activity ([3]; 0.03 µM): 88 % of control; residual kinase activity ([4]; 0.03 µM): 42 % of control; residual kinase activity ([5]; 0.03 µM): 112 % of control; residual kinase activity ([6]; 0.03 µM): 102 % of control; residual kinase activity ([7]; 0.03 µM): 10 % of control; residual kinase activity ([8]; 0.03 µM): 88 % of control; residual kinase activity ([9]; 0.03 µM): 100 % of control; residual kinase activity ([10]; 0.03 µM): 65 % of control; residual kinase activity ([11]; 0.03 µM): 85 % of control
c1ccc(CNc2cc(-c3c[nH]c4ncccc34)ccn2)cc1 [meriolin 36] | 43 % of control | 89 % of control | 89 % of control | 2 % of control | 119 % of control | 74 % of control | 9 % of control | 4 % of control | 19 % of control | 61 % of control | 16 % of control | residual kinase activity ([1]; 3 µM): 9 % of control; residual kinase activity ([2]; 3 µM): 73 % of control; residual kinase activity ([3]; 3 µM): 73 % of control; residual kinase activity ([4]; 3 µM): 0 % of control; residual kinase activity ([5]; 3 µM): 64 % of control; residual kinase activity ([6]; 3 µM): 23 % of control; residual kinase activity ([7]; 3 µM): 1 % of control; residual kinase activity ([8]; 3 µM): 1 % of control; residual kinase activity ([9]; 3 µM): 4 % of control; residual kinase activity ([10]; 3 µM): 26 % of control; residual kinase activity ([11]; 3 µM): 2 % of control
